Source: patent US20250154144A1 (CHILDREN'S HOSPITAL MEDICAL CENTER, priority 2021, published 2025)
Where two headings read alike, the source gives them in different places.

Legend:
[1] = tested on: THP1 cells; assay: Combination drug screening, Cell Titer Glo, 10 × 10 matrix, THP1 cells; type: cell-based
[2] = tested on: MOLM14(D835Y) cells; type: cell-based; conditions: MOLM14(D835Y), 10 × 10
[3] = starting conc. 2000 nM, with (+)-BAY-1251152 starting conc. 1000 nM
[4] = starting conc. 2000 nM, with Azacitidine (5-Azacytidine) starting conc. 20000 nM
[5] = starting conc. 2000 nM, with Palbociclib starting conc. 10000 nM
[6] = starting conc. 2000 nM, with Prednisolone starting conc. 10000 nM
[7] = starting conc. 2000 nM, with TNO-155 starting conc. 10000 nM
[8] = starting conc. 2000 nM, with Venetoclax (ABT-199) starting conc. 2000 nM
[9] = starting conc. 2000 nM, with Venetoclax (ABT-199) starting conc. 20000 nM
[10] = starting conc. 20000 nM, with (+)-BAY-1251152 starting conc. 1000 nM
[11] = starting conc. 20000 nM, with Azacitidine (5-Azacytidine) starting conc. 20000 nM
[12] = starting conc. 20000 nM, with Palbociclib starting conc. 10000 nM
[13] = starting conc. 20000 nM, with Prednisolone starting conc. 10000 nM
[14] = starting conc. 20000 nM, with TNO-155 starting conc. 10000 nM
[15] = starting conc. 20000 nM, with Venetoclax (ABT-199) starting conc. 2000 nM
[16] = starting conc. 20000 nM, with Venetoclax (ABT-199) starting conc. 20000 nM
[17] = title compound starting conc. 20000 nM + (+)-BAY-1251152 starting conc. 1000 nM
[18] = title compound starting conc. 20000 nM + Azacitidine (5-Azacytidine) starting conc. 20000 nM
[19] = title compound starting conc. 20000 nM + Palbociclib starting conc. 10000 nM
[20] = title compound starting conc. 20000 nM + Prednisolone starting conc. 10000 nM
[21] = title compound starting conc. 20000 nM + TNO-155 starting conc. 10000 nM
[22] = title compound starting conc. 20000 nM + Venetoclax (ABT-199) starting conc. 2000 nM
[23] = title compound starting conc. 20000 nM + Venetoclax (ABT-199) starting conc. 20000 nM
[24] = starting conc. 200 nM, with (+)-BAY-1251152 starting conc. 1000 nM
[25] = starting conc. 200 nM, with Azacitidine (5-Azacytidine) starting conc. 20000 nM
[26] = starting conc. 200 nM, with Palbociclib starting conc. 10000 nM
[27] = starting conc. 200 nM, with Prednisolone starting conc. 10000 nM
[28] = starting conc. 200 nM, with TNO-155 starting conc. 10000 nM
[29] = starting conc. 200 nM, with Venetoclax (ABT-199) starting conc. 2000 nM
[30] = starting conc. 200 nM, with Venetoclax (ABT-199) starting conc. 20000 nM

Cc1cc(-c2nc(C(=O)Nc3cc4oc(N5CCOCC5)nc4nc3N3CC[C@@H](O)C3)co2)ccn1 [CA-4948, reference compound]
Comments [1, 3]: Antagonistic at both | Excess HSA Score [1, 3]: 43.42 | Comments [1, 4]: Synergistic | Excess HSA Score [1, 4]: −147.4 | Comments [1, 5]: Synergistic | Excess HSA Score [1, 5]: −41.44 | Comments [1, 6]: Antagonistic | Excess HSA Score [1, 6]: 28.64 | Comments [1, 7]: Antagonistic | Excess HSA Score [1, 7]: 22.1261 | Comments [1, 8]: Antagonistic | Excess HSA Score [1, 8]: 806.5237 | Comments [1, 9]: Synergistic; Optimal | Excess HSA Score [1, 9]: −48.9669 | Comments [1, 10]: Antagonistic at both | Excess HSA Score [1, 10]: 230.5 | Comments [1, 11]: Synergistic | Excess HSA Score [1, 11]: −562.3 | Comments [1, 12]: Antagonistic | Excess HSA Score [1, 12]: 579.4 | Comments [1, 13]: Synergistic | Excess HSA Score [1, 13]: −33.05 | Comments [1, 14]: Additive | Excess HSA Score [1, 14]: −0.9078 | Comments [1, 15]: Synergistic; Optimal | Excess HSA Score [1, 15]: −352.8 | Comments [1, 16]: Synergistic; Optimal | Excess HSA Score [1, 16]: −979.3 | Excess HSA Score ([2]; title compound starting conc. 2000 nM + (+)-BAY-1251152 starting conc. 1000 nM): −153.6 | Excess HSA Score ([2]; title compound starting conc. 2000 nM + Azacitidine (5-Azacytidine) starting conc. 20000 nM): −672.6 | Excess HSA Score ([2]; title compound starting conc. 2000 nM + Palbociclib starting conc. 10000 nM): −930 | Excess HSA Score ([2]; title compound starting conc. 2000 nM + Prednisolone starting conc. 10000 nM): −435.8 | Excess HSA Score ([2]; title compound starting conc. 2000 nM + TNO-155 starting conc. 10000 nM): −1272 | Excess HSA Score ([2]; title compound starting conc. 2000 nM + Venetoclax (ABT-199) starting conc. 2000 nM): −280.9 | Excess HSA Score ([2]; title compound starting conc. 2000 nM + Venetoclax (ABT-199) starting conc. 20000 nM): −1172 | Excess HSA Score [2, 17]: −195.3 | Excess HSA Score [2, 18]: −612.1 | Excess HSA Score [2, 19]: −90.76 | Excess HSA Score [2, 20]: −397.1 | Excess HSA Score [2, 21]: −1174 | Excess HSA Score [2, 22]: −1088 | Excess HSA Score [2, 23]: −1078.145

Cc1cnc(-c2ccc(-c3ccc(NC(=O)Nc4c(F)cc(F)cc4F)cc3F)c3c2C(=O)NC3)[nH]1 [CG-806, reference compound]
Comments [1, 24]: Synergistic at both | Excess HSA Score [1, 24]: −467.1 | Comments [1, 25]: Antagonistic | Excess HSA Score [1, 25]: 45.86 | Comments [1, 26]: Antagonistic | Excess HSA Score [1, 26]: 74.09 | Comments [1, 27]: Synergistic | Excess HSA Score [1, 27]: −30.78 | Comments [1, 28]: Antagonistic | Excess HSA Score [1, 28]: 12.04 | Comments [1, 29]: Synergistic; Optimal | Excess HSA Score [1, 29]: −1194 | Comments [1, 30]: Synergistic; Optimal | Excess HSA Score [1, 30]: −1904 | Comments [1, 10]: Synergistic at both | Excess HSA Score [1, 10]: −821.7 | Comments [1, 11]: Synergistic | Excess HSA Score [1, 11]: −425.4 | Comments [1, 12]: Synergistic | Excess HSA Score [1, 12]: −65.24 | Comments [1, 13]: Antagonistic | Excess HSA Score [1, 13]: 185.6 | Comments [1, 14]: Synergistic | Excess HSA Score [1, 14]: −333.2 | Comments [1, 15]: Synergistic; Optimal | Excess HSA Score [1, 15]: −9.516 | Comments [1, 16]: Synergistic; Optimal | Excess HSA Score [1, 16]: −1150 | Excess HSA Score ([2]; title compound starting conc. 200 nM + (+)-BAY-1251152 starting conc. 1000 nM): −340.1 | Excess HSA Score ([2]; title compound starting conc. 200 nM + Azacitidine (5-Azacytidine) starting conc. 20000 nM): −208.9 | Excess HSA Score ([2]; title compound starting conc. 200 nM + Palbociclib starting conc. 10000 nM): −828 | Excess HSA Score ([2]; title compound starting conc. 200 nM + Prednisolone starting conc. 10000 nM): −264.6 | Excess HSA Score ([2]; title compound starting conc. 200 nM + TNO-155 starting conc. 10000 nM): −776.6 | Excess HSA Score ([2]; title compound starting conc. 200 nM + Venetoclax (ABT-199) starting conc. 2000 nM): −1066 | Excess HSA Score ([2]; title compound starting conc. 200 nM + Venetoclax (ABT-199) starting conc. 20000 nM): −258.9 | Excess HSA Score [2, 17]: −150.9 | Excess HSA Score [2, 18]: −51.33 | Excess HSA Score [2, 19]: −199.1 | Excess HSA Score [2, 20]: 107.5 | Excess HSA Score [2, 21]: −286.9 | Excess HSA Score [2, 22]: −481.6 | Excess HSA Score [2, 23]: −139.4
